Source: patent US20210388012A1, “METHODS AND COMPOSITIONS FOR PRODRUG FORMS OF SPECTINOMYCIN AND SPECTINAMIDE ANALOGS” (priority 2018, published 2021)
Converted amounts (≈) assume the structure as drawn. Where two headings read alike, the source gives them in different places.

Assays:
[1] = biological target: Mycobacterium smegmatis 70S bacterial ribosomes; assay: Ribosomal inhibition assay (luciferase-based protein synthesis inhibition); format: biochemical; conditions: purified M. smegmatis 70S ribosomes, firefly luciferase mRNA
Description: In vitro activity was also assessed using a ribosomal inhibition assay. Briefly, luciferase-based protein synthesis inhibition assays were performed in translation reaction as described previously (Bruell, et al. Biochemistry. 2008 47 (34), 8828-8839), using purified Mycobacterium smegmatis 70S bacterial ribosomes and firefly luciferase mRNA prepared in vitro using T7 RNA polymerase. IC50 values represent the drug concentration that inhibits luciferase activity by 50%.

[2] = Single ascending maximum tolerated dose study in rat; format: in vivo; conditions: female, Sprague-Dawley, rat, in vivo, iv
Description: Several compounds were assessed in single ascending maximum tolerated studies. The compounds assessed were 1810; 3408, a prodrug form of compound 1810; 1599, a chloro homologue of compound 1810; and gentamicin, an antimicrobial associated with ototoxicity. The study was carried out in female Sprague-Dawley rats (n=3 per group). All the drug solutions were prepared in water and PLASMA-LYTE A (50:50; […] was obtained from Baxter Healthcare Corporation, Deerfield, Ill.). Each group of rats were fasted overnight with access to water aJ libitum and a fixed volume (2 mL) of drug-containing solution was administered via the jugular vein catheter. Food was withheld for 3 h post dosing. Different phases of the study were classified on five different speeds of i.v, administration; Phase 1: 5 sec, Phase 2: 30 sec, Phase 3: 5 min, Phase 4: 15 min, Phase 5: 30 min. In the first and second phases, a set of predefined dose levels: 10, 25, 50, 75, 100, 150, 300, 350, 400, 450 and 500 mg/kg. Escalation to the next higher dose was conditional upon absence of signs of acute toxicity following the immediate lower dose over a 24 h period. All animals were monitored by visual inspection focused on focus on changes in skin, fur, eyes, and also respiratory, circulatory, autonomic and central nervous systems, along with somatomotor activity and behavior pattern, including tremors, convulsions, salivation, diarrhea, lethargy, sleep and coma. A dose level was deemed an MTD if […] of acute toxicity were observed and that dose was chosen for the second phase of the study where the process was repeated to determine a toxic dose. For third, fourth and fifth phases, dosing solution was infused by a Instech tethering system (Instech Laboratories Inc., Plymouth Meeting, Pa.) where the animal is freely moving within its cage, the catheter connection is held in place by a vascular access harness and a swivel system, and the drug administration is performed via a Harvard Apparatus programmable syringe pump. After dosing, the tether was removed immediately after completion of the infusion and the catheter was flushed with (100 μL) PlasmaLyte A. Surviving animals from the previous dose with no signs of toxicity were re-used in either phases of these studies upon allowing a one day drug washout period.

[3] = Pharmacokinetic study in rat; format: in vivo, Sprague-Dawley rats; conditions: male, Sprague-Dawley, in vivo, iv, 10 mg/kg
Description: LC-MS Method 1. Quantitative determination of the amount of a disclosed compound present in blood, plasma, or urinary can be determined by LC-MS/MS methods. Briefly, a suitable method involves use of calibrants (0.976, 1.95, 3.91, 7.81, 15.63, 31.25, 62.5, 125, 250, 500, 1000 ng/mL) were in sample matrix (e.g., rat plasma, blood or urine). A separate solution of disclosed compound (independent of calibrants) is used to prepare quality controls. Appropriate volumes of working solutions are added to the sample matrix to yield the final concentrations of 1, 50, 1000 ng/mL. Linearity for calibrants in duplicate is assessed by subjecting the spiked concentrations and the respective peak areas to least-square linear regression analysis with and without intercepts, and a weighted least-square regression (1/x or 1/x^2). The lowest limit of quantitation (LLOQ) in the standard curve measured with acceptable accuracy and precision for a disclosed compound from rat plasma has been previously established as 0.976 ng/mL for a representative compound, 1810. All samples are precipitated by the addition of 4-volumes (100 μL) of IS, 1369 (10 ng/mL) in methanol to a volume (25 μL) of plasma/urine test sample. The samples are vortexed (Fisher scientific, USA) for 30 sec and centrifuged at 10,000×g for 10 min at 4° C. and the supernatants are collected for LC-MS/MS analysis. Chromatographic separation is carried out using a Shimadzu Nexera XR (LC-20ADXR) liquid chromatograph (Shimadzu Corporation, USA) consisting of two pumps, online degasser, system controller and an auto sampler. Mobile phase consisting of a) water with 1.6% nonafluoropentanoic acid and 0.7% formic acid b) 90% acetonitrile with 0.8% nonafluoropentanoic acid and 0.35% formic acid can be used at a flow rate of 0.5 rnLirnin in gradient mode. A Waters® Symmetry ® 3.5μ C8, 50×2.1 mm column (Waters, Milford, Mass.) is used for the separation. Samples (5 μL) are injected on column and the eluate is provided directly to an API 5500 triple quadruple mass spectrometer (Applied Biosystems, Foster City, Calif.) equipped with a turbospray ion source operated in the positive ion mode. The optimized multiple reactions monitoring (MRM) conditions for 3408 (549.2A207.1), 1810 (469.2^207.1) and IS (418.3^207.1) are monitored with a declustering potential of 45 V and collision energy of 25 eV. Data are acquired and processed with Analyst software version 1.6.2 (Applied Biosystems, Foster City, Calif.).
Pharmacokinetic assessment of the disclosed compounds can be determined in a rat model as described herein. Briefly, catheterized male Sprague-Dawley rats from Harlan Bioscience (Indianapolis, Ind.), weighing 200-250 g, are kept at a 12 h light/dark cycle with access to food and water ad libitum. The procedures are approved by the Institutional Animal Care and Use Committee of the University of Tennessee Health Science Center. Formulations of a disclosed compound are prepared in water (50%) and PlasniaLyte A (50%). Test compound can be administered either via intravenous route (10 mg/kg) via femoral vein catheter with the study conducted using a group of 6 rats. Blood (250 μL) was collected via the jugular vein catheter at 0.08, 0.25, 0.5, 0.75, 1, 1.5, 2, 4, 6, 8, 10, 24 and 48 h after drug administration. Plasma was immediately separated by centrifugation (6,000×g for 10 min at 4° C.) and stored at −70° C. until analysis. The plasma concentration was determined as described herein above in LC-MS Method 1, and plasma concentration-time courses were fitted to a non-compartmental model using Phoenix WinNonlin 7.0 (Certara L. P., Princeton, NJ). Area under the concentration-time profile curve (AUC) was calculated by the log trapezoidal rule by log-linear regression and extrapolated to infinity by addition of the value Ct/λZ, where Ct is the concentration at the last time point, and λZ the terminal slope (determined by linear regression) of the log concentration-time curve. […]

[4] = tested on: M. tuberculosis Erdman (TMCC107); assay: Murine model of acute TB infection; format: in vivo; conditions: BALB/c mice, subcutaneous injection 400 mg/kg daily, 12 consecutive days
M. tuberculosis H37Rv = assay: Minimum inhibitory concentration (MIC), microbroth dilution; format: cell-based; conditions: Mycobacterium tuberculosis, 168 h; M. tuberculosis H37Rv, 7 days, 37° C.; read-out: MIC (H37Rv)

Structure (SMILES): CN[C@@H]1[C@H](O)[C@H](NC)[C@H]2O[C@]3(O)[C@H](O[C@@H]2[C@H]1O)O[C@H](C)C[C@H]3NC(=O)Cc1ccc(O)cn1 [Compound 1810, 2-(5-hydroxypyridin-2-yl)-N-((2R,4R,4aS,5aR,6S,7S,8R,9S,9aR,10aS)-4a,7,9-trihydroxy-2-methyl-6,8-bis(methylamino)decahydro-2H-benzo[b]pyrano[2,3-e] [1,4]dioxin-4-yl)acetamide]
- IC50 (M. smegmatis) [1]: 0.84 µg/mL (≈ 1.79 µM)
- MTD at 24 h [2]: 200 to 350 mg/kg
- MTD at 24 h ([2]; female Sprague-Dawley rats, 5 second IV bolus, read-out: MTD): 200 mg/kg
- MTD at 24 h ([2]; female Sprague-Dawley rats, 30 second IV bolus, read-out: MTD): 200 mg/kg
- MTD at 24 h ([2]; female Sprague-Dawley rats, 5 minute IV infusion, read-out: MTD): 350 mg/kg
- MTD at 24 h ([2]; female Sprague-Dawley rats, 15 minute IV infusion, read-out: MTD): > 500 mg/kg
- AUC [3]: 22000 ng·h/mL
- CL [3]: 7.72 mL/min/kg
- Cmax [3]: 47000 ng/mL
- Vss [3]: 0.494 L/kg
- t½ [3]: 23.5 min
- Efficacy in mouse model of acute tuberculosis infection (lung CFU, FIG. 1) [4]: similarly active
- MIC (M. tuberculosis H37Rv): 0.8 µg/mL (≈ 1.71 µM)
